“And” between values parts separate entries of the source, which are not always exact repeats. Equal values may be shown once. Read-outs that look alike come from different tables or passages of the source.
Experiments:
[1] = Plasma and brain concentrations after 3 mg/kg i.p. in male CD-1 mice; conditions: for fu* Cmax: fu by equilibrium dialysis after 6 h
Protocol: Following dosing, three animals were sacrificed per time-point for the collection of terminal plasma and brain. […] Pharmacokinetics (PK) parameters for plasma and whole brain were estimated from the mean plasma and brain concentration versus time profiles.
The animals will be acclimatized to their new environment for a minimum of 5 days prior to study start.
Any unused dosing solutions will be stored at approximately −80° C. until transferred on dry ice to the bioanalytical facility.
The animals will be dosed intra-peritoneally (i.p.) into the lower right quadrant of the abdomen using a 0.5 mL Tuberculin syringe with attached needle 27 G×[…].
Whole blood will be collected via cardiac puncture under isoflurane anesthesia from three mice at each time-point at the collection times outlined in Table 2. Up to 0.8 mL of blood will be collected into 0.8 mL mini-collect K2EDTA coated tubes. Blood tubes will be centrifuged at 3200×g for 5 min. at 4° C. and plasma transferred into 1.5 mL flip top tubes. One vial of plasma for each collection time point will stored at approximately […] until transferred on dry ice to the bioanalytical facility.
Following cardiac puncture, mice will be perfused with 12 mL of ice-cold PBS via the left ventricle. Brains will then be excised, blotted and placed into pre-weighed 5 mL self standing green top sample tubes. Tubes containing brains will be re-weighed and then snap frozen in liquid nitrogen. Brain samples will be stored frozen at approximately −80° C. until transferred on dry ice to the bioanalytical facility.

[2] = system: Wistar rats; experiment: Five Choice Serial Reaction Time Task, standard version (STD), repeated administration; format: in vivo, Wistar rat; set-up: Latency (Correct) / Latency (Incorrect): unit not given here; conditions: for Latency (Correct) / Latency (Incorrect) / Magazine Head Entries / Omissions / Reward Latency / Trials Completed: STD
From the text: The behavioral tasks utilized were three versions of the rat Five Choice Serial Reaction Time Task (5C-SRTT), the standard version of the task (STD) with a fixed stimulus duration and a fixed intertrial interval, the variable stimulus duration (vSD) and the variable intertrial interval (vITI) version. The principal readout parameters in each task were the % Hit and the % correct choices (measures of sustained attention) and three measures of inhibitory response control (premature, perseverative, and timeout responses), although a number of additional outcome measures were obtained (see under Methods and Results below).
Twenty-four adult (approx. 10 months old) male Wistar rats (Envigo, Inc, Indianapolis, IN) were used in the study. […] Subjects were double housed in polycarbonate cages (45×30×18 cm) with corncob bedding in a vivarium of constant temperature (21-23° C.) and humidity (40-50%). […] All behavioral testing was performed during the light portion (9 a.m.-5 p.m.) of the light/dark cycle (Monday thru Friday). Animals were cared for in accordance with the Guide for the Care and Use of Laboratory Animals (U.S. National Institutes of Health) and the experimental protocols were approved by the Institutional Animal Care and Use Committee at Augusta University (Protocol #2010-0044).
The 5C-SRTT procedure (reviewed, Robbins, 2002. Psychopharmacology (Berl); 163(3-4):362-80) was conducted as we have described previously (Terry et al., 2014, Neurotoxicology and Teratology 44:18-29, 2014; Callahan et al., 2020, Neuropharmacology. August 15; 173:107994). […] Animals were trained in eight automated 5C-SRTT operant chambers (Med Associates, St. Albans, VT, USA), controlled by MedPC software (Med Associates). Briefly, each operant chamber was equipped with 5 apertures containing a photocell beam to detect nose pokes and a lamp (2.8 W) that could be illuminated randomly at varying durations. Food pellets (45 mg chow pellet, BioServ, Frenchtown, NJ, USA) were delivered automatically to a magazine, located on the opposite wall to the nose pokes, that was also equipped with a light that turned on to indicate that a pellet had been dispensed. The house-light remained on for the entire session unless an error or omission occurred. Training sessions began with the delivery of a food reward and retrieval triggered the first trial. […] Sessions ended when 40 minutes had lapsed or 100 trials had been completed.
For this study, subjects were re-trained 5 days per week until they re-established a stable performance criteria with a fixed (1.0 sec) stimulus duration and a fixed ITI (5 sec) of 70-75% accuracy, <20% omissions and completion of all 100 trials for 5 consecutive days. Upon meeting these performance criteria animals were trained for one additional week and two groups of subjects (N=12) were assembled and balanced according to their performance accuracy, specifically the % Hit evaluation, which takes into account correct responses as well as all incorrect responses including the number of omissions. […] The vSD version of the task increases the attentional load while the vITI increases impulsivity-like behavior. The following outcome measures and behavioral domains were assessed: % Hit and % correct=sustained attention; omissions=attention/motivation; premature responses=impulsivity; perseverative responses=compulsivity; timeout responses=cognitive inflexibility; magazine head entries=appetitive motivation and compulsivity-like behavior; response latencies=information processing speed and/or motivation. For the STD version of the task, the stimulus duration (SD) was fixed at 1.0 sec and the ITI was fixed at 5 sec. In the vSD version of the task the following stimulus durations were presented in a pseudorandom manner: 0.3, 0.6, and 0.9 sec. In the vITI version, 2.5, 5.0, and 10.0 sec ITIs were employed in a pseudorandom manner. […]

[3] = 3 mg/kg i.p. Compound I-19, male CD-1 mice
[4] = after 3 mg/kg i.p. Compound I-19
[5] = after 3 mg/kg i.p. Compound I-19, below the lower levels of quantitation
[6] = brain, 3 mg/kg i.p. Compound I-19, male CD-1 mice
[7] = plasma, 3 mg/kg i.p. Compound I-19, male CD-1 mice
[8] = Group 1, 0.1 mg/kg, Drug Exp period, mean ± SEM
[9] = Group 1, 0.1 mg/kg, Post-Drug Exp (vehicle washout) period, mean ± SEM
[10] = Group 2, 0.3 mg/kg, Drug Exp period, mean ± SEM
[11] = Group 2, 0.3 mg/kg, Post-Drug Exp (vehicle washout) period, mean ± SEM

For Clc1ccc(C2(OCC3OCCO3)c3ccccc3C3=NCCN32)cc1 (stereo not shown) [Compound I-19], which “Cmax in brain relative to plasma” value ([1]; 3 mg/kg i.p.) is on record?
The value was 1.8 fold.

And the “Maximum brain concentration (Cmax) of Compound I-19” value ([1]; 3 mg/kg i.p.)?
Its value is 1182 nmol/kg.

What about the “Tmax of Compound I-19 (plasma and brain)” value ([1]; 3 mg/kg i.p.) of the same molecule?
The value was 5 min.

What about the “apparent half-life in brain” value ([1]; 3 mg/kg i.p.) of the same molecule?
The value was 25.6 min and 25.2 min.

And the “apparent half-life in plasma” value ([1]; 3 mg/kg i.p.)?
The value was 25.4 min and 25.2 min.

And the “(fu* AUC0-inf)brain/(fu*AUC0-inf)plasma ratio (Kp, uu)” value [1, 3]?
The value was 2.12.

What about the “Brain/plasma AUC0-inf ratio (Kp)” value [1, 3] of the same molecule?
The value was 2.38.

What about the “brain to plasma partitioning coefficient (Kp)” value ([1]; 3 mg/kg i.p., AUC0-inf based) of the same molecule?
Its value is 2.38.

And the “brain to plasma unbound partition coefficient (Kp,uu)” value ([1]; 3 mg/kg i.p., corrected for unbound fractions)?
The value was 2.12.

And the “Tmax of Compound A in brain” value [1, 4]?
The value was 45 min.

And the “Tmax of Compound A in plasma” value [1, 4]?
The value was 15 min.

And the “peak brain concentration of Compound A” value [1, 4]?
Its value is 60.3 nmol/kg.

And the “peak plasma concentration of Compound A” value [1, 4]?
The value was 48.2 nmol/L.

And the “brain concentration of Compound B” value [1, 5]?
The value was less than 3 nmol/kg.

And the “plasma concentration of Compound B” value [1, 5]?
Its value is less than 1 nM.

And the Cmax ([1]; brain (expressed as nmol/kg = nmol/L per footnote), 3 mg/kg i.p. Compound I-19, male CD-1 mice)?
The Cmax was 1180 nM.

What about the AUC0-inf [1, 6] of the same molecule?
The AUC0-inf was 0.521 µM·h.

And the “Apparent T1/2” value [1, 6]?
The value was 25.6 min.

What about the Tmax [1, 6] of the same molecule?
The Tmax was 5 min.

What about the “fu* AUC0-inf” value [1, 6] of the same molecule?
The value was 0.0172 µM·h.

What about the “fu* Cmax” value [1, 6] of the same molecule?
The value was 39.1 nM.

And the AUC0-inf [1, 7]?
The AUC0-inf was 0.218 µM·h.

What about the “Apparent T1/2” value [1, 7] of the same molecule?
Its value is 25.4 min.

What about the Cmax [1, 7] of the same molecule?
Its Cmax is 648 nM.

What about the Tmax [1, 7] of the same molecule?
Its Tmax is 5 min.

What about the “fu* AUC0-inf” value [1, 7] of the same molecule?
Its value is 0.00813 µM·h.

And the “fu* Cmax” value [1, 7]?
The value was 24.1 nM.

What about the Cmax ([1]; read-out: Maximum plasma concentration (Cmax) of Compound I-19, 3 mg/kg i.p.) of the same molecule?
Its Cmax is 648 nM.

And the “Latency (Correct)” value [2, 8]?
The value was 0.94.

What about the “Latency (Incorrect)” value [2, 8] of the same molecule?
The value was 2.15.

And the “Magazine Head Entries” value [2, 8]?
Its value is 150.65 ± 9.46.

And the Omissions [2, 8]?
The Omissions was 9.43.

What about the “Reward Latency” value [2, 8] of the same molecule?
The value was 3.53.

What about the “Trials Completed” value [2, 8] of the same molecule?
Its value is 96.99 ± 2.12.

And the “Latency (Correct)” value [2, 9]?
The value was 0.87 ± 0.03.

What about the “Latency (Incorrect)” value [2, 9] of the same molecule?
Its value is 1.86 ± 0.09.

What about the “Magazine Head Entries” value [2, 9] of the same molecule?
The value was 168.06 ± 13.60.

And the Omissions [2, 9]?
The Omissions was 4.46 ± 0.81.

What about the “Reward Latency” value [2, 9] of the same molecule?
Its value is 2.64.

And the “Trials Completed” value [2, 9]?
Its value is 97.65 ± 2.23.

And the “Latency (Correct)” value [2, 10]?
Its value is 0.92.

What about the “Latency (Incorrect)” value [2, 10] of the same molecule?
The value was 2.28.

What about the “Magazine Head Entries” value [2, 10] of the same molecule?
Its value is 183.89 ± 32.19.

What about the Omissions [2, 10] of the same molecule?
Its Omissions is 8.10 ± 2.32^+.

What about the “Reward Latency” value [2, 10] of the same molecule?
The value was 4.08.

And the “Trials Completed” value [2, 10]?
The value was 98.44 ± 0.95.

What about the “Latency (Correct)” value [2, 11] of the same molecule?
The value was 0.78.

And the “Latency (Incorrect)” value [2, 11]?
The value was 1.61 ± 0.07.

And the “Magazine Head Entries” value [2, 11]?
The value was 211.72 ± 32.77.

And the Omissions [2, 11]?
The Omissions was 3.26 ± 0.95.

And the “Reward Latency” value [2, 11]?
Its value is 2.27.

What about the “Trials Completed” value [2, 11] of the same molecule?
Its value is 100.00.

And the “% Hit and % correct” value ([2]; repeated 0.1 and 0.3 mg/kg IP)?
Its value is “did not significantly affect either the % Hit or the % correct”.

And the premature responses ([2]; repeated 0.1 and 0.3 mg/kg IP)?
The premature responses was “reduced the number of premature responses compared to pre- and post-drug conditions”.

What about the Omissions ([2]; repeated 0.1 and 0.3 mg/kg IP, vSD and vITI versions) of the same molecule?
Its Omissions is “modest increases in the number of omissions”.

From patent US20250108038A1 (priority 2023, published 2025)
